Results reported in BindingDB's records for doi:10.1021/jm801026e (Wyeth Research, 2009).

Tests used:
[1] = molecular target: 3-phosphoinositide-dependent protein kinase 1 (Homo sapiens) (UniProt O15530); experiment: Inhibition of PDK1
[2] = Inhibition of retinoblastoma susceptibility gene product phosphorylation in human MCF7 cells after 24 hrs

SMILES | IC50 [1] [nM] | IC50 [2] [nM]
O=C1NC(=O)c2ccc(I)cc2C1=CNCc1ccc(-c2ccoc2)c(O)c1 [4-[(4-Furan-3-yl-3-hydroxy-benzylamino)-methylene]-6-iodo-4Hisoquinoline-1,3-dione] | 17000 | 610
CCCOc1cnc(CNC=C2C(=O)NC(=O)c3ccc(C(C)(C)C)cc32)cc1O [6-tert-Butyl-4-{[(4-hydroxy-5-propoxy-pyridin-2-ylmethyl)-amino]-methylene}-4H-isoquinoline-1,3-dione] |  | 200
O=C1NC(=O)c2ccc(I)cc2C1=CNCc1ccn(-c2ccoc2)c(=O)c1 [(4Z)-4-[({[1-(3-Furyl)-2-oxo-1,2-dihydropyridin-4-yl]methyl}-amino)methylene]-6-iodoisoquinoline-1,3(2H,4H)-dione] |  | 370
